Measured values as given in US20150105252A1, “SUBSTITUTED PYRAZOLES AS HERBICIDES” (E I DU PONT DE NEMOURS AND COMPANY, priority 2013, published 2015).

What was measured:
Experiment in all cases: Test C postemergence
blackgrass = type: in vivo, Alopecurus myosuroides
Procedure, shortened: (§1)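 Scores of 0 (no effect) to 100 (complete control) were assigned by eye after 13–15 days, comparing treated pots with controls. Soil-applied (preemergence) treatments went onto seeds in loam and sand; foliar (postemergence) treatments onto 1- to 4-leaf plants in peat medium.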

ryegrass, Italian = type: in vivo, Lolium multiflorum
Procedure, shortened: as §1

wheat = type: in vivo, Triticum aestivum
Procedure, shortened: as §1

galium = type: in vivo, Galium aparine
Procedure, shortened: as §1

corn = type: in vivo, Zea mays
Procedure, shortened: as §1

crabgrass, large = type: in vivo, Digitaria sanguinalis
Procedure, shortened: as §1

foxtail, giant = type: in vivo, Setaria faberii
Procedure, shortened: as §1

johnsongrass = type: in vivo, Sorghum halepense
Procedure, shortened: as §1

lambsquarters = type: in vivo, Chenopodium album
Procedure, shortened: as §1

pigweed = type: in vivo, Amaranthus retroflexus
Procedure, shortened: as §1

ragweed = type: in vivo, Ambrosia elation
Procedure, shortened: as §1

soybean = type: in vivo, Glycine max
Procedure, shortened: as §1

barnyardgrass = type: in vivo, Echinochloa crus-galli
Procedure, shortened: as §1

oat, wild = type: in vivo, Avena fatua
Procedure, shortened: as §1

kochia = type: in vivo, Kochia scoparia
Procedure, shortened: as §1

velvetleaf = type: in vivo, Abutilon theophrasti
Procedure, shortened: as §1

chickweed = type: in vivo, Stellaria media
Procedure, shortened: as §1

[1] = Postemergence, 31 g ai/ha, visually evaluated after 13 to 15 days
[2] = postemergence, 62 g ai/ha, scale 0 to 100
[3] = postemergence, 250 g ai/ha, scale 0 to 100 (0 no effect, 100 complete control)
[4] = postemergence, 125 g ai/ha, scale 0 to 100, 0 no effect, 100 complete control

CCNC(=O)c1cc(CC)n(Cc2ccnc(OC(F)F)c2)n1 [Compound 130]
Plant response rating (scale of 0 to 100 where 0 is no effect and 100 is complete control), Blackgrass (blackgrass; [1]): 5 | Blackgrass plant response rating (blackgrass; [2]): 5 | Plant response rating, Blackgrass (blackgrass; [3]): 10 | Plant response rating, Blackgrass (blackgrass; [4]): 10 | Plant response rating (scale of 0 to 100 where 0 is no effect and 100 is complete control), Ryegrass, Italian (ryegrass, Italian; [1]): 5 | Ryegrass, Italian plant response rating (ryegrass, Italian; [2]): 5 | Plant response rating, Ryegrass, Italian (ryegrass, Italian; [3]): 15 | Plant response rating, Ryegrass, Italian (ryegrass, Italian; [4]): 10 | Plant response rating (scale of 0 to 100 where 0 is no effect and 100 is complete control), Wheat (wheat; [1]): 0 | Wheat plant response rating (wheat; [2]): 0 | Plant response rating, Wheat (wheat; [3]): 5 | Plant response rating, Wheat (wheat; [4]): 5 | Plant response rating (scale of 0 to 100 where 0 is no effect and 100 is complete control), Galium (galium; [1]): 60 | Galium plant response rating (galium; [2]): 65 | Plant response rating, Galium (galium; [3]): 75 | Plant response rating, Galium (galium; [4]): 65 | Plant response rating (scale of 0 to 100 where 0 is no effect and 100 is complete control), Corn (corn; [1]): 5 | Corn plant response rating (corn; [2]): 5 | Plant response rating, Corn (corn; [3]): 25 | Plant response rating, Corn (corn; [4]): 5 | Plant response rating (scale of 0 to 100 where 0 is no effect and 100 is complete control), Crabgrass, Large (crabgrass, large; [1]): 5 | Crabgrass, Large plant response rating (crabgrass, large; [2]): 5 | Plant response rating, Crabgrass, Large (crabgrass, large; [3]): 25 | Plant response rating, Crabgrass, Large (crabgrass, large; [4]): 10 | Plant response rating (scale of 0 to 100 where 0 is no effect and 100 is complete control), Foxtail, Giant (foxtail, giant; [1]): 40 | Foxtail, Giant plant response rating (foxtail, giant; [2]): 15 | Plant response rating, Foxtail, Giant (foxtail, giant; [3]): 55 | Plant response rating, Foxtail, Giant (foxtail, giant; [4]): 20 | Plant response rating (scale of 0 to 100 where 0 is no effect and 100 is complete control), Johnsongrass (johnsongrass; [1]): 0 | Johnsongrass plant response rating (johnsongrass; [2]): 5 | Plant response rating, Johnsongrass (johnsongrass; [3]): 10 | Plant response rating, Johnsongrass (johnsongrass; [4]): 5 | Plant response rating (scale of 0 to 100 where 0 is no effect and 100 is complete control), Lambsquarters (lambsquarters; [1]): 25 | Lambsquarters plant response rating (lambsquarters; [2]): 30 | Plant response rating, Lambsquarters (lambsquarters; [3]): 75 | Plant response rating, Lambsquarters (lambsquarters; [4]): 65 | Plant response rating (scale of 0 to 100 where 0 is no effect and 100 is complete control), Pigweed (pigweed; [1]): 30 | Pigweed plant response rating (pigweed; [2]): 65 | Plant response rating, Pigweed (pigweed; [3]): 85 | Plant response rating, Pigweed (pigweed; [4]): 50 | Plant response rating (scale of 0 to 100 where 0 is no effect and 100 is complete control), Ragweed (ragweed; [1]): 30 | Ragweed plant response rating (ragweed; [2]): 35 | Plant response rating, Ragweed (ragweed; [3]): 85 | Plant response rating, Ragweed (ragweed; [4]): 45 | Plant response rating (scale of 0 to 100 where 0 is no effect and 100 is complete control), Soybean (soybean; [1]): 70 | Soybean plant response rating (soybean; [2]): 80 | Plant response rating, Soybean (soybean; [3]): 98 | Plant response rating, Soybean (soybean; [4]): 65 | Plant response rating (scale of 0 to 100 where 0 is no effect and 100 is complete control), Barnyardgrass (barnyardgrass; [1]): 5 | Barnyardgrass plant response rating (barnyardgrass; [2]): 5 | Plant response rating, Barnyardgrass (barnyardgrass; [3]): 10 | Plant response rating, Barnyardgrass (barnyardgrass; [4]): 5 | Plant response rating (scale of 0 to 100 where 0 is no effect and 100 is complete control), Oat, Wild (oat, wild; [1]): 5 | Oat, Wild plant response rating (oat, wild; [2]): 10 | Plant response rating, Oat, Wild (oat, wild; [3]): 15 | Plant response rating, Oat, Wild (oat, wild; [4]): 15 | Plant response rating (scale of 0 to 100 where 0 is no effect and 100 is complete control), Kochia (kochia; [1]): 65 | Kochia plant response rating (kochia; [2]): 75 | Plant response rating, Kochia (kochia; [3]): 90 | Plant response rating, Kochia (kochia; [4]): 90 | Plant response rating (scale of 0 to 100 where 0 is no effect and 100 is complete control), Velvetleaf (velvetleaf; [1]): 5 | Velvetleaf plant response rating (velvetleaf; [2]): 10 | Plant response rating, Velvetleaf (velvetleaf; [3]): 60 | Plant response rating, Velvetleaf (velvetleaf; [4]): 50 | Plant response rating (scale of 0 to 100 where 0 is no effect and 100 is complete control), Chickweed (chickweed; [1]): 65 | Chickweed plant response rating (chickweed; [2]): 70 | Plant response rating, Chickweed (chickweed; [3]): 75 | Plant response rating, Chickweed (chickweed; [4]): 75
